Experimental data: patent US20110200556A1, “CHEMOPREVENTION OF HEAD AND NECK SQUAMOUS CELL CARCINOMAS” (THE UNITED STATES OF AMERICA, AS REPRESENTED BY TH E …, priority 2008, published 2011)

Tested on: tongue and oral mucosa
Assay: Oral chemical carcinogenesis by 4NQO in the drinking water
Type: in vivo, C57B1/6 mice
Settings: 4NQO 50 μg/ml in drinking water, week 12
Protocol: Water was changed weekly.
Methods: Animal studies were carried out according to NIH-approved protocols, in compliance with the Guide for the Care and Use of Laboratory Animals. Female C57B1/6 mice (Harlan Sprague-Dawley, National Cancer Institute at Frederick, Md., USA) 4-6 weeks old and weighing 18 to 20 g, were housed in appropriate sterile filter-capped cages, and fed and given water ad libitum. […] All animals underwent a bi-weekly full oral cavity examination under anesthesia (2-5% Isoflurane, Baxter, Deerfield, Ill., mixed with oxygen), and any observed pathological changes were documented. Animals were euthanized either on week 16 or week 22 for tissue retrieval. Complete autopsies were performed, and tissues were immediately collected and fixed in buffered zinc-formalin (Z-fix, Anatech, Mich.) at room temperature for 12 h. The tissues were then transferred to alcohol 70%, processed for paraffin embedding for histopathological diagnosis and further studies. […] Animals were monitored daily for general behavioral abnormalities, signs of toxicity, illness or discomfort. Animals were euthanized on week 22, and tissue retrieval was performed as described above.
Water was replaced weekly, and mice were monitored prior to each water change. […] All animals underwent a bi-weekly full oral cavity examination, and any pathological changes were documented. […]

## O=[N+]([O-])c1cc[n+]([O-])c2ccccc12 [4NQO, 4-nitroquinoline-1 oxide]
  mice that developed tumors in the tongue and other areas of the oral mucosa: around 50%
